# Target: JAK1 (recombinant purified GST-tagged catalytic domain) (Homo sapiens (Human), UniProt P23458)
# Experiment: Jak Biochemical HTRF Assay (JAK1)
# Settings: [ATP] 31.8 μM
# Procedure: Jak Biochemical HTRF Assay Protocol
# The ability of compounds to inhibit the activity of JAK1, JAK2, JAK3, and Tyk2 was measured using a recombinant purified GST-tagged catalytic domain for each enzyme (Invitrogen JAK1 #M4290, JAK2 #M4290, JAK3 #M4290, Tyk2 #M4290) in an HTRF format biochemical assay. The reactions employed a common peptide substrate, LCB-[…]-NH2 (in-house). The basic assay protocol is as follows: First, 250 nL of diluted compounds in DMSO were dispensed into the wells of a dry 384-well Black plate (Greiner #781076) using a Labcyte Echo 555 acoustic dispenser. Subsequent reagent additions employed an Agilent Bravo. […] After equilibration, 2 μL of 10×ATP in 1× assay buffer was added to initiate the kinase reaction and the plates were shaken and then incubated at room temperature for 120 minutes. At the end of the incubation, 20 μL of 2× stop buffer (streptavidin-Dylight 650 (Thermo #84547B/100 mL), Eu-tagged pY20 antibody (Perkin Elmer #AD0067), EDTA, HEPES, and Triton) was added to quench the reaction. Plates were shaken and centrifuged and then incubated 60 minutes at room temperature and then read on a Perkin Elmer Envision (λex=337 nm, λem=665 and 615 nm, TRF delay time=20 μs). HTRF signal=10,000*665 nm reading/615 nm reading. After normalization to untreated controls, the percent inhibition of the HTRF signal at each compound concentration was calculated. The plot of percent inhibition versus the log of compound concentration was fit with a 4-parameter dose response equation to calculate IC50 values.
# Final reaction conditions were:
# Examples of the instant invention were evaluated in JAK1 and JAK2 in vitro binding assays as described above. The following table tabulates the JAK1 IC50 values and JAK2 IC50 values disclosed for the instant invention.
# Sequence of JAK1 (recombinant purified GST-tagged catalytic domain) (P23458 875-1153): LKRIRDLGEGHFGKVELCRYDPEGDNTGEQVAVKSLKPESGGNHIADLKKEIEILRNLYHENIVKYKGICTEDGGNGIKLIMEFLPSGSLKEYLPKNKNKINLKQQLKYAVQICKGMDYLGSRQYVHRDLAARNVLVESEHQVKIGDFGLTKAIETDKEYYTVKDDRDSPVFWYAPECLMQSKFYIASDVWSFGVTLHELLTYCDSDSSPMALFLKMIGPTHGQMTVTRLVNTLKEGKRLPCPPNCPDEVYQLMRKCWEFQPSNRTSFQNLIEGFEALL
row,Structure (SMILES),IC50
1,"C[C@H]1CN(C(=O)OC(C)(C)C)CC[C@]1(CC#N)n1nc(Nc2ccc(S(C)(=O)=O)cc2)c2c(=O)[nH]ccc21 (racemic) [Example 5-10, tert-butyl (3R,4S and 3S,4R)-4-(cyanomethyl)-3-methyl-4-(3-{[4-(methylsulfonyl)phenyl]amino}-4-oxo-4,5-dihydro-1H-pyrazolo[4,3-c]pyridin-1-yl)piperidine-1-carboxylate]",0.23 nM
2,"C[C@@H]1CN(C(=O)OC(C)(C)C)CC[C@]1(CC#N)n1nc(Nc2ccc(S(C)(=O)=O)cc2)c2c(=O)[nH]ccc21 (racemic) [Example 5-11, tert-butyl (3S,4S and 3R,4R)-4-(cyanomethyl)-3-methyl-4-(3-{[4-(methylsulfonyl)phenyl]amino}-4-oxo-4,5-dihydro-1H-pyrazolo[4,3-c]pyridin-1-yl)piperidine-1-carboxylate]",0.2 nM
3,"CC1(C)Cc2cc(Nc3nn([C@]4(CC#N)CCCOC4)c4cc[nH]c(=O)c34)ccc2C1(O)C(F)(F)F (single isomer, unassigned) [Example 5-119, 2-((S)-3-(3-(((S or R)-1-hydroxy-2,2-dimethyl-1-(trifluoromethyl)-2,3-dihydro-1H-inden-5-yl)amino)-4-oxo-4,5-dihydro-1H-pyrazolo[4,3-c]pyridin-1-yl)tetrahydro-2H-pyran-3-yl)acetonitrile]",0.15 nM
4,"CC1(C)Cc2cc(Nc3nn([C@]4(CC#N)CCCOC4)c4cc[nH]c(=O)c34)ccc2C1(O)C(F)(F)F (single isomer, unassigned) [Example 5-120, 2-((S)-3-(3-((S or R)-1-hydroxy-2,2-dimethyl-1-(trifluoromethyl)-2,3-dihydro-1H-inden-5-yl)amino)-4-oxo-4,5-dihydro-1H-pyrazolo[4,3-c]pyridin-1-yl)tetrahydro-2H-pyran-3-yl)acetonitrile]",0.07 nM
5,"Cc1cc(Nc2nn([C@]3(CC#N)CC[C@@H](C(=O)OC(C)(C)C)OC3)c3cc[nH]c(=O)c23)ccc1C(=O)N1CCSC(C)C1 (single isomer, unassigned) [Example 5-158, (2S,5S)-tert-butyl 5-(cyanomethyl)-5-(3-((3-methyl-4-((S or R)-2-methylthiomorpholine-4-carbonyl)phenyl)amino)-4-oxo-4,5-dihydro-1H-pyrazolo[4,3-c]pyridin-1-yl)tetrahydro-2H-pyran-2-carboxylate]",0.28 nM
6,"Cc1cc(Nc2nn([C@]3(CC#N)CC[C@@H](C(=O)OC(C)(C)C)OC3)c3cc[nH]c(=O)c23)ccc1C(=O)N1CCSC(C)C1 (single isomer, unassigned) [Example 5-159, (2S,5S)-tert-butyl 5-(cyanomethyl)-5-(3-((3-methyl-4-((S or R)-2-methylthiomorpholine-4-carbonyl)phenyl)amino)-4-oxo-4,5-dihydro-1H-pyrazolo[4,3-c]pyridin-1-yl)tetrahydro-2H-pyran-2-carboxylate]",0.24 nM
7,"Cc1cc(Nc2nn([C@]3(CC#N)CC[C@@H](C(=O)OC(C)(C)C)OC3)c3cc[nH]c(=O)c23)ccc1C(=O)N1CCC(O)(C(F)(F)F)C1 (single isomer, unassigned) [Example 5-160, (2S,5S)-tert-butyl 5-(cyanomethyl)-5-(3-((4-((S or R)-3-hydroxy-3-(trifluoromethyl)pyrrolidine-1-carbonyl)-3-methylphenyl)amino)-4-oxo-4,5-dihydro-1H-pyrazolo[4,3-c]pyridin-1-yl)tetrahydro-2H-pyran-2-carboxylate]",0.22 nM
8,"Cc1cc(Nc2nn([C@]3(CC#N)CC[C@@H](C(=O)OC(C)(C)C)OC3)c3cc[nH]c(=O)c23)ccc1C(=O)N1CCC(O)(C(F)(F)F)C1 (single isomer, unassigned) [Example 5-161, (2S,5S)-tert-butyl 5-(cyanomethyl)-5-(3-((4-((S or R)-3-hydroxy-3-(trifluoromethyl)pyrrolidine-1-carbonyl)-3-methylphenyl)amino)-4-oxo-4,5-dihydro-1H-pyrazolo[4,3-c]pyridin-1-yl)tetrahydro-2H-pyran-2-carboxylate]",0.29 nM
9,"CC(C)(C)OC(=O)[C@@H]1CC[C@@](CC#N)(n2nc(Nc3ccc(C(O)(C(C)(C)C)C(F)(F)F)cc3)c3c(=O)[nH]ccc32)CO1 (single isomer, unassigned) [Example 5-166, (2S,5S)-tert-butyl 5-(cyanomethyl)-5-(4-oxo-3-((4-((S or R)-1,1,1-trifluoro-2-hydroxy-3,3-dimethylbutan-2-yl)phenyl)amino)-4,5-dihydro-1H-pyrazolo[4,3-c]pyridin-1-yl)tetrahydro-2H-pyran-2-carboxylate]",1.28 nM
10,"CC(C)(C)OC(=O)[C@@H]1CC[C@@](CC#N)(n2nc(Nc3ccc(C(O)(C(C)(C)C)C(F)(F)F)cc3)c3c(=O)[nH]ccc32)CO1 (single isomer, unassigned) [Example 5-167, (2S,5S)-tert-butyl 5-(cyanomethyl)-5-(4-oxo-3-((4-((S or R)-1,1,1-trifluoro-2-hydroxy-3,3-dimethylbutan-2-yl)phenyl)amino)-4,5-dihydro-1H-pyrazolo[4,3-c]pyridin-1-yl)tetrahydro-2H-pyran-2-carboxylate]",0.83 nM
11,"CC(C)S(=N)(=O)c1ccc(Nc2nn([C@]3(CC#N)CC[C@@H](C(=O)OC(C)(C)C)OC3)c3cc[nH]c(=O)c23)cc1 (single isomer, unassigned) [Example 5-230, (2S,5S)-tert-butyl 5-(cyanomethyl)-5-(4-oxo-3-((4-(propan-2-yl-(S or R)-sulfonimidoyl)phenyl)amino)-4,5-dihydro-1H-pyrazolo[4,3-c]pyridin-1-yl)tetrahydro-2H-pyran-2-carboxylate]",0.12 nM
12,"CC(C)S(=N)(=O)c1ccc(Nc2nn([C@]3(CC#N)CC[C@@H](C(=O)OC(C)(C)C)OC3)c3cc[nH]c(=O)c23)cc1 (single isomer, unassigned) [Example 5-231, (2S,5S)-tert-butyl 5-(cyanomethyl)-5-(4-oxo-3-((4-(propan-2-yl-(S or R)-sulfonimidoyl)phenyl)amino)-4,5-dihydro-1H-pyrazolo[4,3-c]pyridin-1-yl)tetrahydro-2H-pyran-2-carboxylate]",0.12 nM
13,"CC(C)(C)N1Cc2cc(Nc3nn([C@]4(CC#N)CCOC[C@@H]4F)c4cc[nH]c(=O)c34)ccc2C1=O (single isomer, unassigned) [Example 5-259, 2-((3R,4R or 3S,4S)-4-(3-((2-(tert-butyl)-1-oxoisoindolin-5-yl)amino)-4-oxo-4,5-dihydro-1H-pyrazolo[4,3-c]pyridin-1-yl)-3-fluorotetrahydro-2H-pyran-4-yl)acetonitrile]",0.04 nM
14,"CC(C)(C)N1Cc2cc(Nc3nn([C@@]4(CC#N)CCOC[C@H]4F)c4cc[nH]c(=O)c34)ccc2C1=O (single isomer, unassigned) [Example 5-260, 2-((3S,4S or 3R,4R)-4-(3-(2-tert-butyl-1-oxoisoindolin-5-ylamino)-4-oxo-4,5-dihydropyrazolo[4,3-c]pyridin-1-yl)-3-fluoro-tetrahydro-2H-pyran-4-yl)acetonitrile]",0.26 nM
15,"N#CC[C@]1(n2nc(Nc3ccc4c(c3)CN(C3CCNCC3)S4(=O)=O)c3c(=O)[nH]ccc32)CCOC[C@H]1F (single isomer, unassigned) [Example 5-271, 2-[(3S,4S or 3R,4R)-4-(3-{[1,1-dioxo-2-(piperidin-4-yl)-3H-1,2-benzothiazol-5-yl]amino}-4-oxo-5H-pyrazolo[4,3-c]pyridin-1-yl)-3-fluorooxan-4-yl]acetonitrile]",0.25 nM
16,"N#CC[C@@]1(n2nc(Nc3ccc4c(c3)CN(C3CCNCC3)S4(=O)=O)c3c(=O)[nH]ccc32)CCOC[C@@H]1F (single isomer, unassigned) [Example 5-272, 2-((3R,4R or 3S,4S)-4-(3-((1,1-dioxido-2-(piperidin-4-yl)-2,3-dihydrobenzo [d]isothiazol-5-yl)amino)-4-oxo-4,5-dihydro-1H-pyrazolo[4,3-c]pyridin-1-yl)-3-fluorotetrahydro-2H-pyran-4-yl)acetonitrile]",0.06 nM
17,"COC(=O)c1ccc(Nc2nn(C3(CC#N)CN(C(=O)OC(C)(C)C)C3)c3cc[nH]c(=O)c23)cc1 [Example 4-2, tert-butyl 3-(cyanomethyl)-3-(3((4(methoxycarbonyl)phenyl)amino)-4-oxo-4,5-dihydro-1H-pyrazolo[4,3-c]pyridin-1-yl)azetidine-1-carboxylate]",2.47 nM
18,"CC(C)(C)OC(=O)N1CCC(CC#N)(n2nc(Nc3cccc(S(C)(=O)=O)c3)c3c(=O)[nH]ccc32)CC1 [Example 5-13, tert-butyl 4-(cyanomethyl)-4-(3-{[3-(methylsulfonyl)phenyl]amino}-4-oxo-4,5-dihydro-1H-pyrazolo[4,3-c]pyridin-1-yl)piperidine-1-carboxylate]",0.5 nM
